Measurements reported in patent publication US7507727B2, “Substituted quinobenzoxazine analogs and methods of using thereof” (Cylene Pharmaceuticals, Inc., priority 2003, dated 2009).
Values joined by “and” are separate entries in the source; they are usually repeats but may differ in a detail not shown here. Equal entries are not always repeated. Where two headings read alike, the source gives them in different places.

How the values were obtained:
[1] = Pharmacokinetic study in mice, intravenous; assay type: in vivo; conditions: 25 mg/kg intravenous
Excerpt: Pharmacokinetic studies for evaluating pharmacokinetic properties of compounds are designed as follows. Male animals (mouse, Balb/c or rat, SD) aged five to six weeks and/or rats weighing more than 200 grams will be used for testing. One group will be untreated and samples taken to be used as a base line. The other three groups will be treated and administered a single dose of compounds by intravenous injection.
Dosing Procedure. Compounds will be administered via IV (lateral tail vein), IP or PO. Animals will be dosed in a systematic order that distributes the time of dosing similarly across all groups. For IP and PO dosing, animals will be manually restrained. For IV bolus dosing or short term IV infusion (one minute), animals will be mechanically restrained but not sedated. Disposable sterile syringes will be used for each animal/dose.
Approximately 0.5 ml of blood will be collected from the naive animals via cardiac puncture prior to the first dose. Terminal blood samples (0.5 ml) will be collected via cardiac puncture from two animals per group per time point according to the above chart. All samples will be placed in tubes containing lithium heparin as anticoagulant and mixed immediately by inverting. They will be centrifuged and the plasma flash frozen in liquid nitrogen, stored at −70° C. or greater and analyzed for drug levels.
A pharmacokinetic study to determine the time course of CX-3543 disposition was conducted in mice following intravenous administered of 25 mg/kg of CX-3543. Regular sampling was undertaken throughout a 24 hour period after IV dose administration, and the key derived pharmacokinetic parameters were derived. FIG. 11 provides the graphical representation of the pharmacokinetic profile of CX-3543 from which key parameters (Table 11) were obtained.
In FIG. 11, Cmax is the maximum CX-3543 plasma concentration attained (expressed in ng/ml); AUC0-inf is the area under the CX-3543 plasma concentration versus time curve, extrapolated from time zero to infinity (expressed in ng.hr/ml); T1/2 is the terminal half life of CX-3543 (expressed in hr); Vdss is the volume of distribution of CX-3543 at steady state (expressed in L/kg); and ClS is the systemic clearance of CX-3543 (expressed in L/hr/kg).

[2] = tested on: Salmonella typhimurium (TA97a, TA98, TA100, TA102, TA1535); conditions: for FI / TA100 colony count (Rep 1-3) / TA100 colony count, Mean: dose range
Experimental: This Mutagenicity Assessment (Ames Assay) evaluated the potential of the test article extracts to induce histidine (his) reversion in S. typhimurium (his− to his+) or tryptophan (trp) reversion in E. coli (trp− to trp+) caused by base changes or frameshift mutations in the genome of tester organisms.
This plate incorporation assay was conducted with five strains of Salmonella typhimurium (TA97a, TA98, TA100, TA102, and TA1535) and one strain of Escherichia coli (WP2-uvrA^−) in the presence and absence of an exogenous mammalian activation system (S9). The test article was dissolved in 5% dextrose. A series of dilutions were then prepared in saline just prior to testing. A Range Finding Study was conducted for this assay to determine the appropriate doses for definitive mutagenicity assessment.
A stock solution of test article was prepared at 20.0 mg/mL as follows: 1.0 g test article was added to 15.0 mL of 0.1 HCl for 1 minute. The test article was stirred for 15 minutes at room temperature. Next 33.0 mL of deionized water was added and allowed to stir for 30 minutes. […] Lower doses were prepared by dilution in 5% dextrose from this stock immediately prior to use. To minimize any change of degradation, the test article solutions were kept on ice after preparation and until just prior to dosing procedures. The test article was administered in vitro, through a solvent compatible with the test system.
This assay has historically been used to detect mutation in a gene of a histidine requiring strain to produce a histidine independent strain or concordantly, to detect mutation in a gene of a tryptophan requiring strain to produce a tryptophan independent strain.
S. typhimurium strain TA1535 and E. coli strain Wp2-uvrA^− were received from American Type Culture Collection, Manassas, Va. […] All working stocks of test strains will be confirmed for genotypic markers and acceptable reversion rates.
Master plates of the tester strains were prepared from frozen working stocks. To create working cultures for each bacterial strain used in the assay, a single colony was transferred from the master plate into Oxoid nutrient broth and incubated, with shaking, at 37±2° C. until an optical density (at 650 nm) of 0.6-1.6 was reached. This overnight culture was used for the mutagenicity test and for genotypic confirmation. Genotype tests were performed.
For both the dose range and mutagenicity test, a top agar consisting of 0.6% Difco agar in 0.5% NaCl was melted and a solution of 0.5 mM L-histidine/0.5 mM biotin or 0.5 mM L-tryptophan was added to the melted top agar at a ratio of 10 mL per 100 mL agar, as required. The supplemented agar was aliquotted, 2 mL per tube and held at 45-47° C. To prepare the top agar for treatment, 0.1 mL of the test article or control, 0.1 mL of the bacterial culture and 0.5 mL of phosphate buffered saline were added to the molten agar. […] Metabolic activation was provided by adding 0.5 mL of the S9 mix in place of the PBS. […] All plates were counted using an automatic image analysis system. Negative control and test article treated plates were also examined for the presence of a bacterial lawn.
The in vitro metabolic activation system used in this assay was comprised of Sprague Dawley rat liver enzymes and a cofactor pool. […] Immediately prior to use, the S9 was thawed and mixed with a cofactor pool to contain 5% S9, 5 mM glucose 6-phosphate, 4 mM β-nicotine-adenine dinucleotide phosphate, 8 mM MgCl2 and 33 mM KCl in a 200 mM phosphate buffer at pH 7.4. The S9 was purchased from Moltox (Boone, N.C.) and maintained frozen at less than −70° C.
For the definitive assay, three dose levels were chosen ([…], and 5.0 mg/mL). This was equivalent to 2.0, 1.0, and 0.5 mg/plate. All treatments, including negative and positive control, were plated in triplicate against test strains TA97a, TA98, TA100, TA102, TA1535, and WP2-uvrA^− in the presence and absence of metabolic activation.

[3] = male, Balb/c, mouse, plasma, iv, 25 mg/kg
[4] = TA100, with S9 activation, 0.125 mg/plate
[5] = TA100, with S9 activation, 0.25 mg/plate
[6] = TA100, with S9 activation, 0.5 mg/plate
[7] = TA100, with S9 activation, 1.0 mg/plate
[8] = TA100, with S9 activation, 2.0 mg/plate
[9] = TA100, without S9 activation, 0.125 mg/plate
[10] = TA100, without S9 activation, 0.25 mg/plate
[11] = TA100, without S9 activation, 0.5 mg/plate
[12] = TA100, without S9 activation, 1.0 mg/plate
[13] = TA100, without S9 activation, 2.0 mg/plate

Structure (SMILES): CN1CCCC1CCNC(=O)c1cn2c3c(c(N4CCC(c5cnccn5)C4)c(F)cc3c1=O)Oc1cc3ccccc3cc1-2 (stereo not drawn) [CX-3543]
- ClS [1]: 20.5 mL/min/kg
- Vd ([1]; male, Balb/c, mouse, plasma, read-out: Vdss): 7.26 L/kg
- AUC(0-inf) [1, 3]: ~20300 ng·h/mL
- Cmax [1, 3]: ~5350 ng/mL
- half-life [1, 3]: ~4.6 h
- mutagenicity (reversion rates) ([2]; S. typhimurium, with and without S9): non-mutagenic
- FI [2, 4]: 1.5
- TA100 colony count (Rep 1-3) [2, 4]: 175 and 177
- TA100 colony count, Mean [2, 4]: 175.7
- FI [2, 5]: 1.5
- TA100 colony count (Rep 1-3) [2, 5]: 185 and 177 and 189
- TA100 colony count, Mean [2, 5]: 183.7
- FI [2, 6]: 1.6
- TA100 colony count (Rep 1-3) [2, 6]: 182 and 190 and 193
- TA100 colony count, Mean [2, 6]: 188.3
- FI [2, 7]: 1.4
- TA100 colony count (Rep 1-3) [2, 7]: 175 and 147 and 168
- TA100 colony count, Mean [2, 7]: 163.3
- FI [2, 8]: 1.1
- TA100 colony count (Rep 1-3) [2, 8]: 111 and 131 and 137
- TA100 colony count, Mean [2, 8]: 126.3
- FI [2, 9]: 1.1
- TA100 colony count (Rep 1-3) [2, 9]: 153 and 144 and 135
- TA100 colony count, Mean [2, 9]: 144.0
- FI [2, 10]: 1.1
- TA100 colony count (Rep 1-3) [2, 10]: 154 and 148 and 146
- TA100 colony count, Mean [2, 10]: 149.3
- FI [2, 11]: 1.1
- TA100 colony count (Rep 1-3) [2, 11]: 161 and 154 and 137
- TA100 colony count, Mean [2, 11]: 150.7
- FI [2, 12]: 1.0
- TA100 colony count (Rep 1-3) [2, 12]: 147 and 120 and 134
- TA100 colony count, Mean [2, 12]: 133.7
- FI [2, 13]: 0.9
- TA100 colony count (Rep 1-3) [2, 13]: 126 and 117 and 122
- TA100 colony count, Mean [2, 13]: 121.7
